Measured values from paper PMC5696480, “Azole sensitivity in Leptosphaeria pathogens of oilseed rape: the role of lanosterol 14α-demethylase” (Scientific Reports, 2017).

Key:
Assay in all cases: growth inhibition of complemented yeast YUG37::LbCYP51B, absorbance at […] nm
Format in all cases: cell-based, Plenodomus biglobosus (Leptosphaeria biglobosa)
Details in all cases: whole-cell growth; SD GAL + RAF with doxycycline (native CYP51 repressed), 30 °C, 6 days; SD of two biological replicates
LbCYP51B [1] = tested on: T1, LbCYP51B
T1 construct: gene CYP51B; protein identical in all 8 isolates; gene 1642 bp with one 58 bp intron

LbCYP51B [2] = tested on: T1, LbCYP51B; remark: listed apart in the source
LbCYP51B [3] = tested on: T1, LbCYP51B; remark: listed apart in the source

## CC(C)(C)C(O)(CCc1ccc(Cl)cc1)Cn1cncn1 (stereo not drawn) [tebuconazole]
LbCYP51B [1]
  Tebuconazole: 0.0062 (0.0005) µg ml^−1

## OC(Cc1ccccc1Cl)(Cn1cncn1)C1(Cl)CC1 (stereo not drawn) [prothioconazole-desthio]
LbCYP51B [2]
  Prothioconazole-desthio: 0.0004 (0.0002) µg ml^−1

## C[Si](Cn1cncn1)(c1ccc(F)cc1)c1ccc(F)cc1 [flusilazole]
LbCYP51B [3]
  Flusilazole: 0.032 (0.0056) µg ml^−1
